Data on two compounds can be found in patent US20160101072A1, “Therapeutic uses of enzyme inhibitors” (Proximagen Limited, priority 2013, published 2016).

In one experiment the test system is TNF mRNA. Description: mRNA quantification (RT PCR) of TNF in muscles of mdx mice. In kind it is in vivo, mouse. The text has this: (§1) A total of a ninety C57BU10ScSn-Dmdmdx/J male mice, 3 weeks of age (+/-3days), were transferred to the in vivo research laboratory in Bar Harbor, Me. Additional ten […] male mice 3 weeks of age (+/-3 days) were also transferred and served as a wild-type control group. The mice were ear notched for identification and housed in ventilated polysulfone cages with HEPA filtered air at a density of 3-4 mice per cage. The animal room was lit entirely with artificial fluorescent lighting on controlled 12 hour light/dark cycle (6 a.m. to 6 p.m. light). […] The animal room was set for 15 air exchanges per hour. Filtered tap water acidified to a pH of 2.8 to 3.2 was provided ad libitum. […] Prior to study initiation, mice were acclimated for 3 days. Mice were tested for grip strength and in the open field at ages 25 and 26 days, and drug regimen was initiated at age 27 days. Mice were monitored twice weekly for clinical observations and body weights. […] 24 hours after the second open field tests, blood was collected by retro-orbital bleeding, and mice were humanely euthanized by CO2 asphyxiation. One triceps surae was collected fresh and processed for immune cell sorting, one tibialis anterior was preserved in RNALater for RNA extraction, one whole hind limb and the diaphragm were fixed in 2% paraformaldehyde overnight at 4° C. for paraffin embedding and histology stains. Total RNAs were extracted with a modification of the Trizol method, reverse transcribed, and mRNAs of TGFβ, and the following inflammation markers were quantified by the SYBR green method with GAPDH as a normalizer: […]

For a further experiment, the system named is CD11b mRNA. Description: mRNA quantification (RT PCR) of CD11b in muscles of mdx mice. In kind it is in vivo, mouse.
Excerpt: as §1

For the next experiment, the system named is CD11b+ myeloid cells. Description: Cell sorting: recruitment of CD11b+ myeloid cells into muscles of mdx mice. In kind it is in vivo, mouse. The conditions noted are these: mdx mice muscle; for % change compared to vehicle (CD11b+ myeloid cells) / % of viable cells (CD11b+ myeloid cells): 4 weeks. The text has this: (§2) In this example, labelled antibodies were used to assess infiltration of inflammatory myeloid and lymphoid cells into muscles of mdx mice following treatment of the mice with different doses of the glucocorticoid prednisolone, and the VAP-1 inhibitors carbidopa and benserazide. CD11b is a transmembrane glycoprotein which is expressed on the surface of granulocytes (including neutrophils and eosinophils), monocytes, NK cells, dendritic cells, tissue macrophages and subsets of T and B cells. Labelled antibody to CD11b was used to assess infiltration of inflammatory myeloid cells into muscles of mdx mice. Labelled antibody to Ly6C was used to assess infiltration of pro- and anti-inflammatory monocytes into muscles of mdx mice. Labelled antibody to CD4 and CD8a antigen was used to assess infiltration of Th cells (CD4^+CD8^-) and double negative (CD4^-CD8^-) T cells into muscles of mdx mice. A total of a ninety C57BU10ScSn-Dmdmdx/J male mice, 3 weeks of age (+/-3days), were transferred to the in vivo research laboratory in Bar Harbor, Me. Additional ten […] male mice 3 weeks of age (+/-3 days) were also transferred and served as a wild-type control group. The mice were ear notched for identification and housed in ventilated polysulfone cages with HEPA filtered air at a density of 3-4 mice per cage. The animal room was lit entirely with artificial fluorescent lighting on controlled 12 hour light/dark cycle (6 a.m. to 6 p.m. light). […] The animal room was set for 15 air exchanges per hour. Filtered tap water acidified to a pH of 2.8 to 3.2 was provided ad libitum. […] Prior to study initiation, mice were acclimated for 3 days. Mice were tested for grip strength and in the open field at ages 25 and 26 days, and drug regimen was initiated at age 27 days. Mice were monitored twice weekly for clinical observations and body weights. […] 24 hours after the second open field tests, blood was collected by retro-orbital bleeding, and mice were humanely euthanized by CO2 asphyxiation. One triceps surae was collected fresh and processed for immune cell sorting, one tibialis anterior was preserved in RNALater for RNA extraction, one whole hind limb and the diaphragm were fixed in 2% paraformaldehyde overnight at 4° C. for paraffin embedding and histology stains. For immune cell sorting, muscle samples were enzymatically and mechanically dissociated following manufacturer instructions (Skeletal Muscle Dissociation KitCatalog no. 130-098-305, Miltenyi Biotec). Cells were stained with the following antibodies: [table] Stained cells were analyzed on a BD LSR II cytometer and counts of different populations were expressed in percentage of the number of live cells counted.

Another experiment has as its system Mpeg1 mRNA. Description: mRNA quantification (RT PCR) of Mpeg1 in muscles of mdx mice. The conditions noted are these: mdx mice muscle. In kind it is in vivo, mouse.
Excerpt: as §1

A further experiment relates to diaphragms of mdx mice. Kind of experiment: H & E staining of diaphragm sections of mdx mice (inflammatory infiltrates). In kind it is in vivo, mouse. The conditions noted are these: 20 mg/kg po once per day, 6 weeks, 12 week old mdx mice. The text has this:
(§3) The most studied animal model for DMD is the mdx mouse. This was first described by Bulfield et al (Proc. Natl. Acad. Sci. USA, 1984, 81:1189-1192). It has a point mutation within its dystrophin gene, and as a result the mouse has no functional dystrophin in its muscles. […] As it ages, certain muscle types (including the diaphragm) show weakness and increased fibrosis. […] This provides a quantitative framework for studying the pathogenesis of dystrophy (Stedman et al, Nature, 1991, 352, 536-539).
(§4) 12 week old mdx mice were treated with benserazide (20 mg/kg, po, once per day) or vehicle (water, once per day), in groups of 8 mice. After 6 weeks of treatment, diaphragms of the mice were collected and flash frozen in liquid nitrogen-cooled isopentane. The sections were stored on slides at −20° C. until required.
(§5) Hematoxylin and eosin (H & E) staining was used to show cytoplasmic, nuclear, and extracellular matrix features. Hematoxylin stains nucleic acids, and eosin stains proteins nonspecifically. Staining of F4/80 antigen (a glycoprotein expressed by murine macrophages) was used to show macrophages.

A further experiment relates to Ly6C1 mRNA. Description: mRNA quantification (RT PCR) of Ly6C1 in muscles of mdx mice. In kind it is in vivo, mouse. Particulars: mdx mice muscle.
Excerpt: as §1

In experiment [1] the test system is lymphoid CD4+CD8- T cells. Description: Cell sorting: recruitment of lymphoid CD4+CD8- T cells into muscles of mdx mice. In kind it is in vivo, mouse. The conditions noted are these: mdx mice muscle.
Excerpt: as §2

For experiment [2], the system named is CD11b+Ly6Chigh profibrotic myeloid cells (Ly6C+ monocytes). Description: Cell sorting: recruitment of CD11b+Ly6Chigh profibrotic myeloid cells into muscles of mdx mice. In kind it is in vivo, mouse. The conditions noted are these: mdx mice muscle; for % change compared to vehicle (CD11b+Ly6Chigh profibrotic myeloid cells) / % of viable cells (CD11b+Ly6Chigh profibrotic myeloid cells): 4 weeks.
Excerpt: as §2

The test system of experiment [3] is CD11b+Ly6Clow anti-fibrotic myeloid cells (Ly6C- monocytes). Description: Cell sorting: recruitment of CD11b+Ly6Clow anti-fibrotic myeloid cells into muscles of mdx mice. The conditions noted are these: for % change compared to vehicle (CD11b+Ly6Clow anti-fibrotic myeloid cells) / % of viable cells (CD11b+Ly6Clow anti-fibrotic myeloid cells): 4 weeks, mdx mice muscle. In kind it is in vivo, mouse.
Excerpt: as §2

A further experiment relates to macrophages. Kind of experiment: Staining of murine F4/80 antigen in diaphragm sections of mdx mice (macrophage infiltration). The conditions noted are these: 20 mg/kg po once per day, 6 weeks, 12 week old mdx mice. In kind it is in vivo, mouse.
Excerpt: as §3, §4, §5

Experiment [4] relates to CD11b+Ly6Chigh profibrotic : CD11b+Ly6Clow anti-fibrotic myeloid cells. Description: Ratio of profibrotic to anti-fibrotic myeloid cells in mdx mouse muscle. In kind it is in vivo. Particulars: both doses.
Excerpt: In this example, labelled antibodies were used to assess infiltration of inflammatory myeloid and lymphoid cells into muscles of mdx mice following treatment of the mice with different doses of the glucocorticoid prednisolone, and the VAP-1 inhibitors carbidopa and benserazide. […] Labelled antibody to CD11b was used to assess infiltration of inflammatory myeloid cells into muscles of mdx mice. Labelled antibody to Ly6C was used to assess infiltration of pro- and anti-inflammatory monocytes into muscles of mdx mice. Labelled antibody to CD4 and CD8a antigen was used to assess infiltration of Th cells (CD4^+CD8^−) and double negative (CD4^−CD8^−) T cells into muscles of mdx mice.
A total of a ninety C57BU10ScSn-Dmdmdx/J male mice, 3 weeks of age (+/−3days), were transferred to the in vivo research laboratory in Bar Harbor, Me. Additional ten C57BU10ScSnJ male mice 3 weeks of age (+/−3 days) were also transferred and served as a wild-type control group. The mice were ear notched for identification and housed in ventilated polysulfone cages with HEPA filtered air at a density of 3-4 mice per cage. […]
In a further experiment the test system is IL-6 mRNA. Kind of experiment: mRNA quantification (RT PCR) of IL-6 in muscles of mdx mice. In kind it is in vivo, mouse. Particulars: mdx mice muscle.
Excerpt: as §1

The subject of a further experiment is CD48 mRNA. Description: mRNA quantification (RT PCR) of CD48 in muscles of mdx mice. In kind it is in vivo, mouse.
Excerpt: as §1

Another experiment has as its system Lgals3 mRNA. Kind of experiment: mRNA quantification (RT PCR) of Lgals3 in muscles of mdx mice. In kind it is in vivo, mouse.
Excerpt: as §1

The test system of experiment [5] is lymphoid CD4-CD8- (double negative, DN) T cells. Description: Cell sorting: recruitment of lymphoid CD4-CD8- (double negative, DN) T cells into muscles of mdx mice. In kind it is in vivo, mouse. Particulars: mdx mice muscle.
Excerpt: as §2

The subject of another experiment is TGFβ mRNA. Kind of experiment: mRNA quantification (RT PCR) of pro-fibrotic growth factor TGFβ in muscles of mdx mice. In kind it is in vivo, mouse.
Excerpt: as §1

The test system of the next experiment is CD53 mRNA. Kind of experiment: mRNA quantification (RT PCR) of CD53 in muscles of mdx mice. In kind it is in vivo, mouse.
Excerpt: as §1

The test system of a further experiment is T cells. The conditions noted are these: correlated with reduction in muscle necrosis and fibrosis; very early studies; cited from earlier work.
Another experiment relates to eosinophils. Particulars: DMD / mdx dystrophic muscle, previous studies; cited from earlier work.
Setting [6] is: 20 mg/kg po twice/day, mdx mice muscle, GAPDH as normalizer.
Setting [7] is: treatment alone, mdx mouse muscle.
[8] abbreviates: doses as in the table (carbidopa 100, benserazide 20 mg/kg po twice/day; prednisolone 1 mg/kg ip once/day).

Marks after values point to notes of the source that are not given here.

As to `NC(CO)C(=O)NNCc1ccc(O)c(O)c1O` (stereo not drawn) [Benserazide], the “TNF mRNA level” value with TNF mRNA (setting [6]) is 0.79. Further, in the experiment on TNF mRNA (setting [7]), the “effect on the level of TNF mRNA” value is listed as “No significant effect”. Besides, in the experiment on CD11b mRNA (setting [6]), the “CD11b mRNA level” value is recorded as 1.12. For the same compound, the “effect on the level of CD11b mRNA” value with CD11b mRNA (setting [7]) is “not significantly affected”. In the experiment on CD11b+ myeloid cells (7 mg/kg po twice/day), the “% change compared to vehicle (CD11b+ myeloid cells)” value is given as −13.7% and the “% of viable cells (CD11b+ myeloid cells)” value was 31.4%. Moreover, in the experiment on CD11b+ myeloid cells (20 mg/kg po twice/day), the “% change compared to vehicle (CD11b+ myeloid cells)” value is reported as −32.4% and the “% of viable cells (CD11b+ myeloid cells)” value is 24.6* %. Moreover, the “reduction of CD11b+ myeloid cell recruitment compared with vehicle” value in the experiment on CD11b+ myeloid cells (higher dose of benserazide) was “approximately one-third”. Besides, in the experiment with Mpeg1 mRNA, the “effect on Mpeg1 mRNA level” value is reported as “No effects”. Further, the “reduction in inflammatory infiltrates compared to vehicle (H & E staining)” value in the experiment on diaphragms of mdx mice was about 50%. Further, in the experiment with Ly6C1 mRNA, the “effect on Ly6C1 mRNA level” value is reported as “No effects”. Besides, in experiment [1] (20 mg/kg po twice/day, 4 weeks), the “% change compared to vehicle (lymphoid CD4+CD8- T cells)” value is −37.0% and the “% of viable cells (lymphoid CD4+CD8- T cells)” value is recorded as 9.2* %. Further, the “reduction of recruitment of lymphoid CD4+CD8- T cells compared with vehicle” value in [1] (setting [8]) is on record as “over 50%”. Further, in [2] (7 mg/kg po twice/day), the “% change compared to vehicle (CD11b+Ly6Chigh profibrotic myeloid cells)” value was −11.5% and the “% of viable cells (CD11b+Ly6Chigh profibrotic myeloid cells)” value came out at 6.49%. Besides, in [2] (20 mg/kg po twice/day), the “% change compared to vehicle (CD11b+Ly6Chigh profibrotic myeloid cells)” value is −26.9% and the “% of viable cells (CD11b+Ly6Chigh profibrotic myeloid cells)” value worked out at 5.36%. Besides, the “effect on recruitment of profibrotic myeloid cells compared with vehicle” value in experiment [2] (both doses) was “little, if any, statistically significant effect”. Besides, in experiment [3] (7 mg/kg po twice/day), the “% change compared to vehicle (CD11b+Ly6Clow anti-fibrotic myeloid cells)” value is −16.5% and the “% of viable cells (CD11b+Ly6Clow anti-fibrotic myeloid cells)” value is 22.7%. For the same compound, in experiment [3] (20 mg/kg po twice/day), the “% change compared to vehicle (CD11b+Ly6Clow anti-fibrotic myeloid cells)” value is −27.9% and the “% of viable cells (CD11b+Ly6Clow anti-fibrotic myeloid cells)” value was 19.6* %. For the same compound, the “inhibition of recruitment of anti-fibrotic myeloid cells compared with vehicle” value in experiment [3] (higher dose of benserazide, statistically significant) came to 27.9%. For the same compound, the “reduction in macrophage infiltration compared to vehicle (F4/80 staining)” value with macrophages was about 50%. The “relative levels of pro- and anti-fibrotic myeloid cells” value in experiment [4] is on record as “not affected”. For the same compound, the “effect on IL-6 mRNA level” value in the experiment with IL-6 mRNA is reported as “No effects”. Besides, the “CD48 mRNA level” value in the experiment on CD48 mRNA (setting [6]) was 0.85. Further, the “effect on the level of CD48 mRNA” value with CD48 mRNA (setting [7]) is listed as “no significant effect”. In the experiment with Lgals3 mRNA (setting [6]), the “Lgals3 mRNA level” value was determined as 0.95. In addition, the “effect on the level of Lgals3 mRNA” value with Lgals3 mRNA (setting [7]) is given as “no significant effect”. Besides, in [5] (20 mg/kg po twice/day, 4 weeks), the “% change compared to vehicle (lymphoid CD4-CD8- DN T cells)” value is on record as −44.8% and the “% of viable cells (lymphoid CD4-CD8- DN T cells)” value is recorded as 18** %. Moreover, in experiment [5] (setting [8]), the “reduction of recruitment of lymphoid DN T cells compared with vehicle” value is recorded as “over 50%”. Besides, in the experiment with TGFβ mRNA (20 mg/kg po twice/day, mdx mice muscle), the “% change compared to vehicle (TGFβ mRNA)” value was −34.7%. Besides, the “TGFβ mRNA” value with TGFβ mRNA (setting [6]) is 0.79. Besides, the “reduction of the TGFβ mRNA level (fraction in words)” value in the experiment on TGFβ mRNA (treatment alone, muscle of mdx mice) is “over a third”. In addition, the “CD53 mRNA level” value in the experiment on CD53 mRNA (setting [6]) was 0.95. Moreover, the “effect on the level of CD53 mRNA” value in the experiment with CD53 mRNA (setting [7]) is recorded as “not significantly affected”.
`C[C@]12C=CC(=O)C=C1CC[C@@H]1[C@@H]2C(=O)C[C@@]2(C)[C@H]1CC[C@]2(O)C(=O)CO` [Prednisone, prednisone]: in the experiment on T cells, the “effect on T cells in DMD patients” value is “reduction in T cells”. For the same compound, the “effect on eosinophil infiltration” value with eosinophils is “reduce eosinophil infiltration”.
